Like-named read-outs stand apart in the source and are kept apart here.
Key:
[1] = tested on: acetic acid-induced colitis in rats; assay: Prevention of acetic acid-induced colitis in a rat model; assay type: in vivo, Sprague-Dawley rats; conditions: DFO 20 mg/kg 30 minutes before 4% acetic acid (FIG. 1)
Experimental: Induction of colitis. Male Sprague-Dawley rats (250-350 g) were anesthetized with sodium pentobarbital, 55 mg/kg intraperitoneally. The abdomen was shaved and prepared for surgery. A midline incision was made, and the cecum and proximal colon were exteriorized. A reversible suture was placed at the junction of the cecum and proximal colon. The colon was rinsed with saline (10 ml), and the fluid and intestinal contents were gently expressed out the rectum. A gum-based rectal plug was inserted. The compound of interest, or distilled water in the control animals (2 ml), was injected intracolonically just distal to the ligature. The cecum and proximal colon were returned to the abdominal cavity; the compound was allowed to remain in the gut for 30 min. Then, the cecum and proximal colon were exteriorized again. The rectal plug was removed, and the drug was gently expressed out of the colon. […] The entire length of the colon was removed and assessed for damage both densitometrically and biochemically.
Quantitation of acetic acid-induced colitis. Gross damage was quantitated using Photoshop-based image analysis (version 5.0, Adobe Systems, Mountain View, Calif., USA) on an Apple iMac computer. […] The cursor was then placed on the histogram, the color range determined in an earlier step was selected, and the number of pixels encompassing that range and the percent damage were quantitated automatically.

[2] = Apparent partition coefficient (LogPapp) of DFT analogs; assay type: physicochemical
[3] = Concentration of DFT analogs in rat plasma and cerebrospinal fluid after PO or SC dose; assay type: in vivo, Sprague-Dawley rats; conditions: rats, PO 300 μmol/kg, monosodium salt
Experimental: Adult male Sprague-Dawley rats (450-500 g) were used. The rats were not fasted. A sample solution of a monosodium salt of (S)-4′-(HO)-DADFT-norPE (III-A) or (S)-4′-(HO)-DADFT-PE (IV-A) was administered to the rats at an oral or subcutaneous dose of 300 μmol/kg. Concentrations of the DFT analogs in the plasma and cerebrospinal fluid of the rats were measured at 0.5 hour, 1 hour, 2 hours, 4 hours, and 8 hours post administration.

[4] = Concentration of DFT analogs in rat plasma and eyes after SC dose, rats not perfused; assay type: in vivo; conditions: non-perfused rats, SC 300 μmol/kg, one hour post dose; for Concentration in the eye: entire eye; for concentration at 1 h: rat, plasma
Experimental: (§1) Rats were anesthetized with ketamine/xylazine about 50 minutes after dosing. Blood of the rats was collected via cardiac puncture into vacutainer tubes containing buffered sodium citrate one hour post dose. The rats' eyes were removed. Any extraneous tissue was trimmed and discarded. The eyes were frozen. The entire eye was then processed and assessed for the concentration of the DFT analog. The whole blood was centrifuged, and the plasma was separated and frozen until the concentration of the DFT analog was determined.

[5] = Concentration of DFT analogs in rat plasma and eyes after SC dose, rats perfused with saline; assay type: in vivo; conditions: SC 300 μmol/kg, one hour post dose; for concentration at 1 h: rat, plasma, rats perfused with saline; for Concentration in the eye: rats perfused with saline (about 100 ml, 5 minutes), entire eye
Experimental: as §1, with “dose. The rats' abdomen and thorax were opened, and a portion of the sternum/ribs was removed. A 19-gauge needle was inserted into the left ventricle of the rats, and the right atrium was cut. About 100 ml of saline was perfused transcardially for five minutes. The perfusion was stopped, and the rats' eyes” for “dose. The rats' eyes”

[6] = male, Sprague-Dawley, rat, cerebrospinal fluid, read-out: Concentration in cerebrospinal fluid
[7] = male, Sprague-Dawley, rat, plasma, read-out: Concentration in plasma
[8] = male, Sprague-Dawley, rat, plasma, 1 h, read-out: Concentration in plasma
[9] = male, Sprague-Dawley, rat, plasma, 2 h
[10] = male, Sprague-Dawley, rat, plasma, 4 h, read-out: Concentration in plasma

## CC(=O)N(O)CCCCCNC(=O)CCC(=O)N(O)CCCCCNC(=O)CCC(=O)N(O)CCCCCN [DFO, desferrioxamine]
[1]
  Prevention of acetic acid-induced colitis: prevent acetic acid-induced colitis in rats

## COCCOCCOc1ccc(C2=N[C@@](C)(C(=O)O)CS2)c(O)c1 [III-A, (S)-4′-(HO)-DADFT-norPE]
[2]
  LogPapp: −0.89
[3]; [6]
  concentration at 0.5 h: 8.07 ± 3.09 µM
[3]; male, Sprague-Dawley, rat, cerebrospinal fluid, 1 h, read-out: Concentration in cerebrospinal fluid
  concentration at 1 h: 5.7 ± 2.74 µM
[3]; male, Sprague-Dawley, rat, cerebrospinal fluid, 4 h, read-out: Concentration in cerebrospinal fluid
  concentration at 4 h: 0 µM
[3]; male, Sprague-Dawley, rat, cerebrospinal fluid, 8 h
  concentration at 8 h: 0 nM
[3]; [7]
  concentration at 0.5 h: 424 ± 60 µM
[3]; [8]
  concentration at 1 h: 219 ± 19 µM
[3]; [9]
  concentration at 2 h: 30 ± 5 µM
[3]; [10]
  concentration at 4 h: 2 ± 0.4 µM
[3]; 2 h
  Concentration in cerebrospinal fluid: 2.32 (only 1 out 3 animals μM
[3]; 8 h
  Concentration in plasma: trace
[4]
  Concentration in the eye: 25.8 ± 6.0 nmol/g wet weight of the eye
  concentration at 1 h: 218 ± 16 µM
[5]
  concentration at 1 h: 218 ± 51 µM
  Concentration in the eye: 17.2 ± 5.5 nmol/g wet weight of the eye

## COCCOCCOCCOc1ccc(C2=N[C@@](C)(C(=O)O)CS2)c(O)c1 [IV-A, (S)-4′-(HO)-DADFT-PE]
[2]
  LogPapp: −1.10
[3]; [6]
  concentration at 0.5 h: 2.14 ± 1.01 µM
[3]; [7]
  concentration at 0.5 h: 142 ± 57 µM
[3]; [8]
  concentration at 1 h: 64 ± 7 µM
[3]; [9]
  concentration at 2 h: 32 ± 20 µM
[3]; [10]
  concentration at 4 h: 2 ± 0.5 µM
[3]; 1 h
  Concentration in cerebrospinal fluid: trace
[3]; 2 h
  Concentration in cerebrospinal fluid: trace
[3]; 4 h
  Concentration in cerebrospinal fluid: trace
[3]; 8 h
  Concentration in cerebrospinal fluid: trace
  Concentration in plasma: trace

## COc1ccc(C2=N[C@@H](C(=O)O)CS2)c(O)c1 [V-A]
[2]
  LogPapp: −0.89
[4]
  Concentration in the eye: 37.8 ± 4.3 nmol/g wet weight of the eye
  concentration at 1 h: 701 ± 32 µM
[5]
  concentration at 1 h: 663 ± 42 µM
  Concentration in the eye: 29.7 ± 4.3 nmol/g wet weight of the eye

— patent US11931346B2, “Uses of 4′-desferrithiocin analogs” (University of Florida Research Foundation, Incorporated, priority 2011, dated 2024)
